Literature values as cited in patent US20050101563A1, “Method and compositions for the treatment and prevention of pain and inflammation” (Pharmacia Corporation, priority 2001, published 2005).

Assays:
Cox-2 = details: enzyme inhibitory compounds of Ligustrum lucidum extracts
[1] = test system: patients with knee osteoarthritis; details: 1500 mg/day, 3 years
[2] = orally administered; rats
rats = details: orally administered; sponge implants in rats

For `CC(=O)N[C@H]1C(O)O[C@H](CO)[C@@H](O)[C@@H]1O` (stereo partly drawn) [N-acetylglucosamine], which “IL-1-beta-mediated activation of chondrocytes” value (human chondrocytes) is on record?
The value was “prevent IL-1-beta-mediated activation of human chondrocytes”.

Which “selectivity for the inhibition of Cox-2 versus Cox-1” value (Cox-2) does the source give for `C[C@H]1[C@H](C)CC[C@]2(C(=O)O)CC[C@]3(C)C(=CC[C@@H]4[C@@]5(C)CC[C@H](O)C(C)(C)[C@@H]5CC[C@]43C)[C@H]12` [ursolic acid] here?
Its value is “not substantially more selective for the inhibition of Cox-2 than for Cox-1”.

With `CC1(C)CC[C@]2(C(=O)O)CC[C@]3(C)C(=CC[C@@H]4[C@@]5(C)CC[C@H](O)C(C)(C)[C@@H]5CC[C@]43C)[C@@H]2C1` [oleanic acid] as the compound, how does the “selectivity for the inhibition of Cox-2 versus Cox-1” value (Cox-2) read?
The value was “not substantially more selective for the inhibition of Cox-2 than for Cox-1”.

With `N[C@H]1C(O)O[C@H](CO)[C@@H](O)[C@@H]1O.O=S(=O)(O)O` (stereo partly drawn) [glucosamine sulfate] as the compound, how does the joint-space loss [1] read?
The joint-space loss was “no significant joint-space loss”.

For chondroitin sulfate, which tissue tropism [2] is on record?
The tissue tropism was “tropism for cartilagineous tissues”.

What about the granuloma formation (rats) of the same compound?
Its granuloma formation is “significantly decrease granuloma formation”.
